Measured values as given in patent US20240245793A1, “PSD-95 INHIBITORS AND USES THEREOF” (priority 2021, published 2024).
Where two headings read alike, the source gives them in different places.

What was measured:
PDZ1-2 of PSD-95 = PDZ1-2 of PSD-95 (Homo sapiens, UniProt P78352); assay: Fluorescence polarization (FP) competition assay, affinity to PDZ1-2 of PSD-95; assay type: binding; conditions: OPEG4 dimers without CPP; mean ± SEM, n ≥ 3 (Table 4, FIG. 1)
Method: First, a saturation binding curve was obtained to determine KD values for the interaction between a fluorescent dimeric probe and PDZ1-2 of PSD-95. Increasing concentrations of PDZ1-2 (0.015-30 nM) were added to a constant concentration of the probe (0.5 nM). The fluorescence polarization (FP) of the sample was measured at excitation/emission wavelength of 635/670 nm and the generated FP values were fitted to a one site binding model using the software GraphPad Prism. […] The FP values were fitted to a one site competition (variable slope) model in GraphPad prism. The resulting IC50 values were converted to Ki values as described previously by Nikolovska-Coleska et al., Anal. Biochem., 2004, 332, 261).

plasmin = target: T1, plasmin (Homo sapiens, UniProt P00747); assay: In vitro plasmin stability assay; assay type: in vitro ADME
T1 construct: Tissue plasminogen factor (tPA), which generates plasmin from plasminogen
T1 sequence (P00747 581-810 limits assumed, species assumed): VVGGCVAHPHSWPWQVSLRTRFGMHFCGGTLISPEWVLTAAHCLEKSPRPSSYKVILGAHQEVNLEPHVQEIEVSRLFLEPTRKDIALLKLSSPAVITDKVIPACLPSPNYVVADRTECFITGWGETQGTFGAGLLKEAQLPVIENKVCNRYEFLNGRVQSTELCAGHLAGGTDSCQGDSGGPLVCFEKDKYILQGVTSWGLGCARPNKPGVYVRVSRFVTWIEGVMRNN
T1 sequence (P00747 97-580 partner limits assumed, species assumed): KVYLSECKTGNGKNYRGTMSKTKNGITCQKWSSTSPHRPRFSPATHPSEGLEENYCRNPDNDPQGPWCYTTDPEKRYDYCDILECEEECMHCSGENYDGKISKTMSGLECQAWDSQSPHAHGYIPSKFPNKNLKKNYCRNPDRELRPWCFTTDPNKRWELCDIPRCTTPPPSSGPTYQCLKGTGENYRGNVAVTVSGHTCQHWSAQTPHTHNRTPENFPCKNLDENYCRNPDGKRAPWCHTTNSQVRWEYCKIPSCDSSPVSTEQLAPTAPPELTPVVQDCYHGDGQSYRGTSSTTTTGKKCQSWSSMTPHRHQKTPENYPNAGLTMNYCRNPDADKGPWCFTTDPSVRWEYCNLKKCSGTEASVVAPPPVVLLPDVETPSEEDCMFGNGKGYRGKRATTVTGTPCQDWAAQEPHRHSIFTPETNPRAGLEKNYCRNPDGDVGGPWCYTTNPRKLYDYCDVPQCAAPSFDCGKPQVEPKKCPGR
Method: At selected time points during the incubation, the ligands were extracted from 80 μL of assay matrix by treatment with 80 μL of 50% acetonitrile (ACN). The samples were filtered and analysed by UPLC to determine the amount of ligand remaining. LC-MS analysis was performed to confirm ligand integrity and identify cleavage sites.

[1] = isolated enzyme plasmin, read-out: T1/2

Sequence of PDZ1-2 of PSD-95 (P78352 61-249 limits assumed): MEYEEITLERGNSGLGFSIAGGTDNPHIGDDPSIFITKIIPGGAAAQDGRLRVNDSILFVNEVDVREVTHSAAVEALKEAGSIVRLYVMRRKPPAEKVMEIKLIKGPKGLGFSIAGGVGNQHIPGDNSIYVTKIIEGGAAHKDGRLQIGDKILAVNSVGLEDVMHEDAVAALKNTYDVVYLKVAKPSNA

half-life at 100 μM (plasmin; isolated enzyme plasmin) [h] | SMILES | other results
 | CC(C)C[C@H](NC(=O)[C@@H](NC(=O)[C@H](CCC(=O)O)NC(=O)[C@H](CCCCN)NC(=O)CCOCCOCCOCCOCCOCCC(=O)N[C@@H](CCCCN)C(=O)N[C@@H](CCC(=O)O)C(=O)N[C@H](C(=O)N[C@@H](CC(C)C)C(=O)N[C@H](C(=O)O)C(C)C)[C@@H](C)O)[C@@H](C)O)C(=O)N[C@H](C(=O)O)C(C)C [Compound 2, OPEG4-(KETLV)2] | Ki (PDZ1-2 of PSD-95): 11.1 ± 0.3 nM
2.82 ± 0.333 | CC[C@H](C)[C@H](NC(=O)CCOCCOCCN(CCOCCOCCC(=O)N[C@H](C(=O)N[C@@H](CCC(=O)O)C(=O)N[C@H](C(=O)N[C@@H](CC(=O)O)C(=O)N[C@H](C(=O)O)C(C)C)[C@@H](C)O)[C@@H](C)CC)C(=O)[C@H](CO)NC(=O)[C@H](CCC(=O)O)NC(=O)[C@H](CCCNC(=N)N)NC(=O)[C@H](CCCNC(=N)N)NC(=O)[C@H](CCCNC(=N)N)NC(=O)[C@H](CCCCN)NC(=O)[C@H](CCCCN)NC(=O)[C@H](CCCNC(=N)N)NC(=O)[C@H](CO)NC(=O)[C@H](CCC(=O)O)NC(=O)[C@H](CCCNC(=N)N)NC(=O)[C@H](CCCNC(=N)N)NC(=O)[C@H](CCCNC(=N)N)NC(=O)[C@H](CCCCN)NC(=O)[C@H](CCCCN)NC(=O)[C@H](CCCNC(=N)N)NC(C)=O)C(=O)N[C@@H](CCC(=O)O)C(=O)N[C@H](C(=O)N[C@@H](CC(=O)O)C(=O)N[C@H](C(=O)O)C(C)C)[C@@H](C)O [Compound 50] | 
0.817 ± 0.15 | CC[C@H](C)[C@H](NC(=O)CCOCCOCCN(CCOCCOCCC(=O)N[C@H](C(=O)N[C@@H](CCC(=O)O)C(=O)N[C@H](C(=O)N[C@@H](CC(=O)O)C(=O)N[C@H](C(=O)O)C(C)C)[C@@H](C)O)[C@@H](C)CC)C(=O)[C@H](CCCCN)NC(=O)[C@H](CO)NC(=O)[C@H](Cc1c[nH]cn1)NC(=O)[C@H](C)NC(=O)[C@H](Cc1c[nH]cn1)NC(=O)[C@H](C)NC(=O)[C@H](CCC(N)=O)NC(=O)[C@H](CCCCN)NC(=O)[C@H](CCCNC(=N)N)NC(=O)[C@@H](NC(=O)[C@H](CCCNC(=N)N)NC(=O)[C@H](CCCNC(=N)N)NC(=O)[C@H](CCCNC(=N)N)NC(=O)[C@H](CC(C)C)NC(=O)[C@@H](NC(=O)[C@@H](NC(=O)[C@H](CC(C)C)NC(=O)[C@H](CC(C)C)NC(C)=O)[C@@H](C)CC)[C@@H](C)CC)[C@@H](C)CC)C(=O)N[C@@H](CCC(=O)O)C(=O)N[C@H](C(=O)N[C@@H](CC(=O)O)C(=O)N[C@H](C(=O)O)C(C)C)[C@@H](C)O [Compound 52] | 
0.217 ± 0.0667 | CC[C@H](C)[C@H](NC(=O)CCOCCOCCN(CCOCCOCCC(=O)N[C@H](C(=O)N[C@@H](CCC(=O)O)C(=O)N[C@H](C(=O)N[C@@H](CC(=O)O)C(=O)N[C@H](C(=O)O)C(C)C)[C@@H](C)O)[C@@H](C)CC)C(=O)[C@H](C)NC(=O)[C@H](CC(C)C)NC(=O)[C@H](CCCCN)NC(=O)[C@H](CC(C)C)NC(=O)[C@H](C)NC(=O)[C@H](C)NC(=O)[C@H](CCCCN)NC(=O)[C@H](CC(C)C)NC(=O)[C@H](C)NC(=O)[C@H](CCCCN)NC(=O)[C@H](CC(C)C)NC(=O)[C@H](C)NC(=O)[C@H](CC(C)C)NC(=O)[C@H](CCCCN)NC(=O)[C@H](CC(C)C)NC(=O)[C@H](C)NC(=O)[C@H](CC(C)C)NC(=O)[C@H](CCCCN)NC(C)=O)C(=O)N[C@@H](CCC(=O)O)C(=O)N[C@H](C(=O)N[C@@H](CC(=O)O)C(=O)N[C@H](C(=O)O)C(C)C)[C@@H](C)O [Compound 54] | 
 | CC[C@@H](C)[C@@H](NC(=O)[C@@H](CCCCN)NC(=O)[C@H](NC(=O)[C@@H](CCC(N)=O)NC(=O)[C@@H](CCCNC(=N)N)NC(C)=O)[C@H](C)CC)C(=O)N[C@H](Cc1c[nH]c2ccccc12)C(=O)N[C@H](Cc1ccccc1)C(=O)N[C@H](CCC(N)=O)C(=O)N[C@H](CC(N)=O)C(=O)N[C@H](CCCNC(=N)N)C(=O)N[C@H](CCCNC(=N)N)C(=O)N[C@H](CCSC)C(=O)N[C@H](CCCCN)C(=O)N[C@H](Cc1c[nH]c2ccccc12)C(=O)N[C@H](CCCCN)C(=O)N[C@H](CCCCN)C(=O)N(CCOCCOCCC(=O)N[C@H](C(=O)N[C@@H](CCC(=O)O)C(=O)N[C@H](C(=O)N[C@@H](CC(=O)O)C(=O)N[C@H](C(=O)O)C(C)C)[C@@H](C)O)[C@@H](C)CC)CCOCCOCCC(=O)N[C@H](C(=O)N[C@@H](CCC(=O)O)C(=O)N[C@H](C(=O)N[C@@H](CC(=O)O)C(=O)N[C@H](C(=O)O)C(C)C)[C@@H](C)O)[C@@H](C)CC [Compound 48] | half-life (plasmin; [1]): 24 h
7.98 ± 1.28 | CC(=O)N[C@@H](CCCNC(=N)N)C(=O)N[C@@H](CCCNC(=N)N)C(=O)N[C@@H](CCCNC(=N)N)C(=O)N[C@@H](CCCNC(=N)N)C(=O)N[C@@H](CCCNC(=N)N)C(=O)N[C@@H](CCCNC(=N)N)C(=O)N[C@@H](CCCNC(=N)N)C(=O)N[C@@H](CCCNC(=N)N)C(=O)N[C@@H](CCCNC(=N)N)C(=O)N(CCOCCOCCC(=O)N[C@H](C(=O)N[C@@H](CCC(=O)O)C(=O)N[C@H](C(=O)N[C@H](C(=O)N[C@H](C(=O)O)C(C)C)C(C)C)[C@@H](C)O)C(C)C)CCOCCOCCC(=O)N[C@H](C(=O)N[C@@H](CCC(=O)O)C(=O)N[C@H](C(=O)N[C@H](C(=O)N[C@H](C(=O)O)C(C)C)C(C)C)[C@@H](C)O)C(C)C [Compound 33] | 
 | CC(C)[C@H](NC(=O)[C@@H](NC(=O)[C@@H](NC(=O)[C@H](CCC(=O)O)NC(=O)[C@H](CCCCN)NC(=O)CCOCCOCCOCCOCCOCCC(=O)N[C@@H](CCCCN)C(=O)N[C@@H](CCC(=O)O)C(=O)N[C@H](C(=O)N[C@H](C(=O)N[C@H](C(=O)O)C(C)C)[C@@H](C)O)[C@@H](C)O)[C@@H](C)O)[C@@H](C)O)C(=O)O [Compound 3, OPEG4-(KETTV)2] | Ki (PDZ1-2 of PSD-95): 14.4 ± 0.4 nM
 | CC[C@H](C)[C@H](NC(=O)CCOCCOCCN(CCOCCOCCC(=O)N[C@H](C(=O)N[C@@H](CCC(=O)O)C(=O)N[C@H](C(=O)N[C@@H](CC(=O)O)C(=O)N[C@H](C(=O)O)C(C)C)[C@@H](C)O)[C@@H](C)CC)C(=O)[C@H](CCCCN)NC(=O)[C@H](CCCCN)NC(=O)[C@H](Cc1c[nH]c2ccccc12)NC(=O)[C@H](CCCCN)NC(=O)[C@H](CCSC)NC(=O)[C@H](CCCNC(=N)N)NC(=O)[C@H](CCCNC(=N)N)NC(=O)[C@H](CC(N)=O)NC(=O)[C@H](CCC(N)=O)NC(=O)[C@H](Cc1ccccc1)NC(=O)[C@H](Cc1c[nH]c2ccccc12)NC(=O)[C@@H](NC(=O)[C@H](CCCCN)NC(=O)[C@@H](NC(=O)[C@H](CCC(N)=O)NC(=O)[C@H](CCCNC(=N)N)NC(C)=O)[C@@H](C)CC)[C@@H](C)CC)C(=O)N[C@@H](CCC(=O)O)C(=O)N[C@H](C(=O)N[C@@H](CC(=O)O)C(=O)N[C@H](C(=O)O)C(C)C)[C@@H](C)O [Compound 46] | half-life (plasmin; isolated enzyme plasmin): 1.57 ± 0.133 h
25.5 ± 9.63 | CC(=O)N[C@@H](CCCNC(=N)N)C(=O)N[C@@H](CCCNC(=N)N)C(=O)N[C@@H](CCCNC(=N)N)C(=O)N[C@@H](CCCNC(=N)N)C(=O)N[C@@H](CCCNC(=N)N)C(=O)N[C@@H](CCCNC(=N)N)C(=O)N[C@@H](CCCNC(=N)N)C(=O)N[C@@H](CCCNC(=N)N)C(=O)N[C@@H](CCCNC(=N)N)C(=O)N(CCOCCOCCC(=O)N[C@@H](CCCCN)C(=O)N[C@@H](CCC(=O)O)C(=O)N[C@H](C(=O)N[C@H](C(=O)N[C@H](C(=O)O)C(C)C)C(C)C)[C@@H](C)O)CCOCCOCCC(=O)N[C@@H](CCCCN)C(=O)N[C@@H](CCC(=O)O)C(=O)N[C@H](C(=O)N[C@H](C(=O)N[C@H](C(=O)O)C(C)C)C(C)C)[C@@H](C)O [Compound 27] | 
24 | CC[C@@H](C)[C@@H](NC(=O)[C@@H](CC(C)C)NC(=O)[C@H]1CCCN1C(C)=O)C(=O)N[C@H](Cc1ccc(O)cc1)C(=O)N[C@H](CC(C)C)C(=O)N[C@H](CCCNC(=N)N)C(=O)N[C@H](CC(C)C)C(=O)N[C@H](CC(C)C)C(=O)N[C@H](CCCNC(=N)N)C(=O)NCC(=O)N[C@H](CCC(N)=O)C(=O)N[C@H](Cc1ccccc1)C(=O)N(CCOCCOCCC(=O)N[C@H](C(=O)N[C@@H](CCC(=O)O)C(=O)N[C@H](C(=O)N[C@@H](CC(=O)O)C(=O)N[C@H](C(=O)O)C(C)C)[C@@H](C)O)[C@@H](C)CC)CCOCCOCCC(=O)N[C@H](C(=O)N[C@@H](CCC(=O)O)C(=O)N[C@H](C(=O)N[C@@H](CC(=O)O)C(=O)N[C@H](C(=O)O)C(C)C)[C@@H](C)O)[C@@H](C)CC [Compound 58] | 
 | CC[C@H](C)[C@H](NC(=O)CCOCCOCCN(CCOCCOCCC(=O)N[C@H](C(=O)N[C@@H](CCC(=O)O)C(=O)N[C@H](C(=O)N[C@@H](CC(=O)O)C(=O)N[C@H](C(=O)O)C(C)C)[C@@H](C)O)[C@@H](C)CC)C(=O)[C@H](CCCNC(=N)N)NC(=O)[C@H](CCCNC(=N)N)NC(=O)[C@H](CCCNC(=N)N)NC(=O)[C@H](CCC(N)=O)NC(=O)[C@H](CCCNC(=N)N)NC(=O)[C@H](CCCNC(=N)N)NC(=O)[C@H](CCCCN)NC(=O)[C@H](CCCCN)NC(=O)[C@H](CCCNC(=N)N)NC(=O)CNC(=O)[C@H](Cc1ccc(O)cc1)NC(C)=O)C(=O)N[C@@H](CCC(=O)O)C(=O)N[C@H](C(=O)N[C@@H](CC(=O)O)C(=O)N[C@H](C(=O)O)C(C)C)[C@@H](C)O [Compound 9] | half-life (plasmin; [1]): 3.82 ± 2.15 h; half-life (plasmin; read-out: T1/2): 3.82 ± 2.15 h
16.7 ± 2.85 | CC(=O)N[C@@H](CCCNC(=N)N)C(=O)N[C@@H](CCCNC(=N)N)C(=O)N[C@@H](CCCNC(=N)N)C(=O)N[C@@H](CCCNC(=N)N)C(=O)N[C@@H](CCCNC(=N)N)C(=O)N[C@@H](CCCNC(=N)N)C(=O)N[C@@H](CCCNC(=N)N)C(=O)N[C@@H](CCCNC(=N)N)C(=O)N[C@@H](CCCNC(=N)N)C(=O)N(CCOCCOCCC(=O)N[C@@H](CCCCN)C(=O)N[C@@H](CCC(=O)O)C(=O)N[C@H](C(=O)N[C@@H](CCCNC(=N)N)C(=O)N[C@H](C(=O)O)C(C)C)[C@@H](C)O)CCOCCOCCC(=O)N[C@@H](CCCCN)C(=O)N[C@@H](CCC(=O)O)C(=O)N[C@H](C(=O)N[C@@H](CCCNC(=N)N)C(=O)N[C@H](C(=O)O)C(C)C)[C@@H](C)O [Compound 29] | 
